{"source": "patent US20110262996A1", "about": "“METHODS AND MATERIALS FOR DEGRADING PYRETHROID” (DANISCO A/S, priority 2008, published 2011)", "target": "T1, organophosphate hydrolase (OPH) (Brevundimonas diminuta, UniProt P0A434)", "T1 construct": "purchased Genencor DEFENZ 130G, lot 102-6181-001", "assay": "Time course of permethrin degradation by OPH, permethrin quantified by GCMS", "assay_type": "biochemical", "conditions": "for Amount of Permethrin measured: 5 μL of 0.31 mg/mL OPH added to 995 μL of 2.5 mg/mL permethrin, pH 8.5, 22° C., ppm at the detector", "method": "OPH was assayed for the ability to degrade permethrin. Its efficacy has been measured by performing time course experiments wherein a sample of OPH is added to a sample of permethrin. Degraded permethrin is then separated from the reaction mixture and detected on a GCMS.\nExperimental Methods and Equipment. A Shimadzu GC2010 Gas Chromatograph with AOC 20i Auto Injector and a Shimadzu GCMS QP2010S Quadrapole Mass Spectrometer were used to analyze the experimental samples. A Supelco Equity-5 column was used (length: 30.0 m, thickness: 0.25 μm, diameter: 0.25 mm) for the assays. However, analogous columns may be substituted.\nThe equipment was run with the following parameters: • column oven temperature: 120° C. • injector temperature: 250° C. • injection: splitless • pre-run rinses: 3 • post-run rinses: 3 • sample rinses: 2 • linear velocity: 30 cm/sec • column flow: 0.64 mL/min • split ratio: 10 • detector voltage: relative to tuning • ion source temperature: 250° C. • interface temperature: 270° C. • solvent cut time: 3 min • run time: 35 min • temperature ramp: 5° C./min • scan speed: 833\nExperimental assays were run using recombinant OPH (DEFENZ™ 130G, lot 102-6181-001; Genencor). Reagents included ammonium carbonate (Sigma 207861, lot 12919JC), cobalt chloride (JT Baker 1670-04, lot Y41640), hydrochloric acid (JT Baker 5620-02, lot A23506), propanol (Sigma 154970, lot 04242AD), and permethrin (Sigma-Pestanal 45614, lot 7079×).\nPreparation of Enzyme Samples. OPH enzyme granules (2% protein) were dissolved in 33 mM ammonium carbonate buffer, pH 8.5, at 22° C. The reaction mixture was agitated for 30 minutes, first vortexed, then slowly agitated on a temperature-controlled platform shaker. A 1.5 mL sample of the enzyme solution was taken and centrifuged for 1 minute at 13,000 rpm. An aliquot of the resulting supernatant is used in the pesticide degradation reaction.\nPreparation of Permethrin Samples. A stock permethrin sample at a concentration of 100 mg/mL was made by dissolving an appropriate amount of permethrin standard into propanol. The stock sample was stored under refrigeration. For generating standard curves on the GCMS, permethrin standards were made by diluting an aliquot of the stock permethrin sample into propanol to achieve a concentration of 1 mg/mL and 10 mg/mL. Permethrin to be used in the enzyme reaction was prepared by diluting an aliquot of the stock solution into 33 mM ammonium carbonate buffer at the desired pH for a particular reaction, and at room temperature.\nEnzyme Reactions. In a 1.5 mL tube, 250 μL of a 10 mg/mL permethrin solution in propanol was added to 0.75 mL of 33 mM ammonium carbonate buffer, pH 8.5. A 995 μL aliquot of the permethrin solution was placed in a 1.5 mL gas chromatography (GC) sample vial, to which was added a 5 μL aliquot of a 0.31 mg/mL OPH enzyme solution. To inactivate the reaction at any specific time point, a 10 μL aliquot of the reaction solution was removed and added to 990 μL of propanol in a GC sample vial. These samples were then loaded on the GCMS autosampler.\nResults and Discussion. This study was conducted to determine whether OPH degrades permethrin. To quantitatively measure amounts of permethrin, the Shimadzu GC with Quadrapole MS detector was used, as in previous pesticide experiments. A standard curve was generated using 1 mg/mL and 10 mg/mL stock solutions in propanol. Regression of the standard curve yielded R2 values of 0.9997 above 50 ppm and of 0.998 below 50 ppm.\nPreliminary experiments were conducted to ascertain optimum concentrations for the enzyme reactions. […] Samples were taken at time points of 0, 1, 5, 15, and 30 minutes by removing 10 μL of the reaction mixture and adding it to 990 μL of propanol. […]", "data": [{"smiles": "CC1(C)C(C=C(Cl)Cl)C1C(=O)OCc1cccc(Oc2ccccc2)c1", "note": "(stereo not shown) [permethrin]", "values": [{"measurement": "degraded amount of permethrin at the detector", "setting": "after 30 minutes", "result": 12, "unit": "ppm"}, {"measurement": "Amount of Permethrin measured", "setting": "time 0 min", "result": 31.47, "unit": "ppm"}, {"measurement": "Amount of Permethrin measured", "setting": "time 1 min", "result": 25.8, "unit": "ppm"}, {"measurement": "Amount of Permethrin measured", "setting": "time 5 min", "result": 25.88, "unit": "ppm"}, {"measurement": "Amount of Permethrin measured", "setting": "time 15 min", "result": 24.64, "unit": "ppm"}, {"measurement": "Amount of Permethrin measured", "setting": "time 30 min", "result": 19.27, "unit": "ppm"}, {"measurement": "initial, rapid degradation of permethrin at the detector", "setting": "within 1 minute of the start of the reaction", "result": "approximately 6 ppm"}]}]}
